Paper PMC9953885 (Biosensors, 2023)
Where a name gives a salt, the structure may show the parent alone.

Target: T1, human pancreatic lipase (hPL) (Homo sapiens, UniProt P16233)
T1 construct: gene PNLIP
T1 sequence (P16233 17-465): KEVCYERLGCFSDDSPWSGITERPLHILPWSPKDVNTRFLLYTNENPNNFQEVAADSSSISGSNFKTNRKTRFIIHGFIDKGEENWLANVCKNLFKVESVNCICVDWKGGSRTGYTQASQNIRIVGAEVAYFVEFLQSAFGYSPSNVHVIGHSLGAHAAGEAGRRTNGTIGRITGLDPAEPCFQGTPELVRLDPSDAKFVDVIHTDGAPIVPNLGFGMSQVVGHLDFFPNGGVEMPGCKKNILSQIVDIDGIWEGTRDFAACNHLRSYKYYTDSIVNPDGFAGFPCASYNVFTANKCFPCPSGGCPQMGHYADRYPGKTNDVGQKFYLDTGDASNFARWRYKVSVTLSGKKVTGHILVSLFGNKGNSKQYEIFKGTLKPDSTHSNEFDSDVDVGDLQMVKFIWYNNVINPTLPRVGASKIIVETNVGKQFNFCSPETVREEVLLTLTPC
Conditions: 10 µM; inhibitor
Method: First, we evaluated the inhibitory effect of 94 natural products derived from herbs and 94 drugs on hPL. In our high-throughput screening system, 1 ug/mL hPL was used, and the final concentration of the 94 natural products derived from herbs and 94 drugs used was 10 μM. Other conditions were the same as in the selectivity experiments. […] RLE was incubated with hPL and various enzymes, such as hCES1A, hCES2A, CA, AchE, BchE, 5-HKE, lysozyme, trypsin, thrombin, α-CT, FAP, PREP, pepsin, α-amylase, plasmin, notum and hSA, in a 100 µL incubation mixture consisting of Tris-HCl (pH = 7.4, 25 mM), NaCl (150 mM), CaCl2 (1 mM) and porcine bile salt (0.1 mg/mL) at a concentration of 1.5 µg/mL. The reaction was initiated by adding RLE to the preincubated enzyme mixture at 37 °C, and metabolite formation was determined by measuring the fluorescence intensity of resorufin at 590 nm. In addition, several amino acids (IIe, His, Trp, Val, Leu, Tyr, Ala, Thr, Pro, Asp, Lys, Met, Cys, Ser, Phe, Gly, Glu and Gln), ions (Ni^2+, Ca^2+, Na^+, K^+, Cu^2+, Zn^2+, Mg^2+, NH4^+, Cu^+, Fe^2+ and CN^-) and GSH were measured. The concentration of these interfering factors was 5 μM. […] In this case, a visual high-throughput assay was established to screen hPL inhibitors, using RLE as a fluorogenic substrate in a 96-well microplate.

CCC/C=C1\OC(=O)C2=C1CCC=C2 [Z-Ligustilide]
% of control remaining: 83.60%

COc1cc2c(cc1OC)-c1c(C)c3ccc(OC)c(OC)c3c[n+]1CC2 [Dehydrocorydaline]
% of control remaining: 123.69%

C#C[C@]1(O)CC[C@H]2[C@@H]3CCC4=CC(=O)CC[C@@H]4[C@H]3C(=C)C[C@@]21CC [Etonogestrel]
% of control remaining: 62.97%

C=C1CC[C@@H]2[C@](C)(CO)[C@H](O)CC[C@@]2(C)[C@@H]1C/C=C1/C(=O)OC[C@H]1O [Andrographolide]
% of control remaining: 70.38%

CCCN(CCC)S(=O)(=O)c1ccc(C(=O)O)cc1 [Probenecid]
% of control remaining: 93.75%

COc1ccc2cc3[n+](cc2c1O)CCc1cc2c(cc1-3)OCO2 [Berberrubine]
% of control remaining: 86.09%

Cc1ncc2n1-c1ccc(Cl)cc1C(c1ccccc1F)=NC2 [Midazolam]
% of control remaining: 96.73%

CC(NC(C)(C)C)C(=O)c1cccc(Cl)c1 (stereo not drawn) [bupropion hydrochloride]
% of control remaining: 120.79%

O=C(CCc1ccc(O)cc1)c1c(O)cc(O)cc1O[C@@H]1O[C@H](CO)[C@@H](O)[C@H](O)[C@H]1O [Phlorizin dihydrate]
% of control remaining: 85.09%

O=C1[C@H](CC[C@H](O)c2ccc(F)cc2)[C@@H](c2ccc(O)cc2)N1c1ccc(F)cc1 [Ezetimibe]
% of control remaining: 119.27%

C[C@@H]1O[C@@H](Oc2c(-c3cc(O)c(O)c(O)c3)oc3cc(O)cc(O)c3c2=O)[C@H](O)[C@H](O)[C@H]1O [Myricitrin]
% of control remaining: 91.12%

Oc1cc(O)c2c(c1)OC(c1ccc(O)c(O)c1)C(OC1(c3ccc(O)c(O)c3)Oc3cc(O)cc(O)c3C(O)C1O)C2 (stereo not drawn) [Procyanidin]
% of control remaining: 5.72%

CC#CCn1c(N2CCC[C@@H](N)C2)nc2c1c(=O)n(Cc1nc(C)c3ccccc3n1)c(=O)n2C [Linagliptin]
% of control remaining: 108.93%

C[C@]12C=CC(=O)C=C1CC[C@@H]1[C@@H]2[C@@H](O)C[C@@]2(C)[C@H]1CC[C@]2(O)C(=O)CO [Prednisolone]
% of control remaining: 82.34%

O=P1(N(CCCl)CCCl)NCCCO1 (stereo not drawn) [Cyclophosphamide]
% of control remaining: 91.59%

COc1ccc(-c2cc(=O)c3c(O)cc(O)c(-c4cc(-c5cc(=O)c6c(O)cc(O)cc6o5)ccc4OC)c3o2)cc1 [Isoginkgetin]
% of control remaining: 54.78%

COc1c2occc2cc2ccc(=O)oc12 [8-Methoxypsoralen]
% of control remaining: 90.65%

Oc1ccc2c(c1)OCO2 [Sesamol]
% of control remaining: 103.95%

O=C(O)/C=C/c1ccccc1 [trans-Cinnamic acid]
% of control remaining: 72.50%

COc1ccc(CCC(=O)c2ccc(O)cc2)c(OC)c1 [Loureirin A]
% of control remaining: 67.52%

COc1c(O)c(O)cc2oc(-c3ccc(O)c(O)c3)c(O)c(=O)c12 [g2, 2-(3,4-Dihydroxyphenyl)-3,6,7-trihydroxy-5-methoxy-4H-1-benzopyran-4-one]
% of control remaining: 59.87%

C[C@H]1CC[C@@]2(OC1)O[C@H]1C[C@H]3[C@@H]4CC[C@@H]5C[C@@H](O[C@@H]6O[C@H](CO)[C@H](O)[C@H](O)[C@H]6O[C@@H]6O[C@H](CO)[C@@H](O)[C@H](O)[C@H]6O)CC[C@]5(C)[C@H]4CC[C@]3(C)[C@H]1[C@@H]2C [Timosaponin A-III]
% of control remaining: 95.12%

O=c1cc(-c2ccc(O)c(O)c2)oc2c([C@@H]3O[C@H](CO)[C@@H](O)[C@H](O)[C@H]3O)c(O)cc(O)c12 [Orientin]
% of control remaining: 76.06%

C=C1C(=O)O[C@@H]2C[C@@]3(C)CCCC(=C)[C@@H]3C[C@H]12 [Isoalantolactone]
% of control remaining: 70.02%

O=c1c(O)c(-c2ccc(O)cc2)oc2c(O)c(O)cc(O)c12 [Herbacetin]
% of control remaining: 83.59%

CC(C)OC(=O)C(C)(C)Oc1ccc(C(=O)c2ccc(Cl)cc2)cc1 [Fenofibrate]
% of control remaining: 94.68%

O=c1c(O)c(-c2ccc(O)cc2O)oc2cc(O)cc(O)c12 [Morin hydrate]
% of control remaining: 96.10%

O=c1ccc2cc(O)c(O)cc2o1 [Esculetin]
% of control remaining: 86.12%

N=C(N)NC(=O)c1nc(Cl)c(N)nc1N [Amiloride hydrochloride]
% of control remaining: 109.84%

CC(=O)O[C@@H]1C[C@H](O)[C@@]23CO[C@@H](O)[C@]1(C)[C@@H]2C[C@@H](O)[C@]1(C)[C@@H]3C(=O)[C@H](OC(C)=O)[C@@]2(C)[C@H](c3ccoc3)C[C@H]3O[C@]321 [Toosendanin]
% of control remaining: 72.37%

O=C1C([C@@H]2O[C@H](CO)[C@@H](O)[C@H](O)[C@H]2O)=C(O)/C(=C(O)/C=C/c2ccc(O)cc2)C(=O)C1(O)[C@@H]1O[C@H](CO)[C@@H](O)[C@H](O)[C@H]1O (stereo partly drawn) [Hydroxysafflor yellow A]
% of control remaining: 76.59%

CCC(=O)O[C@H]1CC[C@H]2[C@@H]3CCC4=CC(=O)CC[C@]4(C)[C@H]3CC[C@]12C [Testosterone propionate]
% of control remaining: 65.37%

Cc1cn([C@H]2C[C@H](N=[N+]=[N-])[C@@H](CO)O2)c(=O)[nH]c1=O [Zidovudine]
% of control remaining: 73.04%

Cc1nnc2n1-c1ccc(Cl)cc1C(c1ccccc1)=NC2 [Alprazolam]
% of control remaining: 68.13%

C/C=C(/C)C(=O)O[C@H]1[C@@H](OC(=O)CC(C)C)c2c(ccc3ccc(=O)oc23)OC1(C)C [Praeruptorin E]
% of control remaining: 87.81%

CC(C)=CC[C@@H](O)C1=CC(=O)c2c(O)ccc(O)c2C1=O [Shikonin]
% of control remaining: 107.55%

C=C1C(=O)O[C@@H]2C[C@@]3(C)CCC[C@H](C)C3=C[C@H]12 [Alantolactone]
% of control remaining: 61.11%

C[C@@H]1C(=O)O[C@H]2[C@H](O)[C@@]34O[C@@H]5OC(=O)[C@H](O)[C@@]56[C@H](C(C)(C)C)[C@H](O)C(OC3=O)[C@]64[C@@]12O (stereo partly drawn) [Ginkgolide C]
% of control remaining: 106.22%

Cc1nc(Nc2ncc(C(=O)Nc3c(C)cccc3Cl)s2)cc(N2CCN(CCO)CC2)n1 [Dasatinib]
% of control remaining: 91.97%

CC(C)(C)NCC(O)c1cc(O)cc(O)c1 (stereo not drawn) [Terbutaline]
% of control remaining: 108.89%

C[C@H]1O[C@@H](O[C@H]2[C@@H](O)C[C@H](O[C@H]3[C@@H](O)C[C@H](O[C@H]4CC[C@@]5(C)[C@H](CC[C@@H]6[C@@H]5C[C@@H](O)[C@]5(C)[C@@H](C7=CC(=O)OC7)CC[C@]65O)C4)O[C@@H]3C)O[C@@H]2C)C[C@H](O)[C@@H]1O [Digoxin]
% of control remaining: 99.51%

C#C[C@]1(O)CC[C@H]2[C@@H]3CCC4=CC(=O)CCC4=C3C=C[C@@]21CC [Gestrinone]
% of control remaining: 66.72%

CC(=O)NC[C@H]1CN(c2ccc(N3CCOCC3)c(F)c2)C(=O)O1 [Linezolid]
% of control remaining: 91.81%

CN/C(=N\CCSCc1nc[nH]c1C)NC#N [Cimetidine]
% of control remaining: 111.11%

COc1c(O)cc(O)c2c(=O)cc(-c3ccccc3)oc12 [Wogonin]
% of control remaining: 106.17%

O=C1c2c(O)cc(O)cc2O[C@H](c2ccc(O)c(O)c2)[C@H]1O [TGaxifolin]
% of control remaining: 97.17%

COc1cc(/C=C/C(=O)CC(=O)/C=C/c2ccc(O)c(OC)c2)ccc1O [Curcumin]
% of control remaining: 75.83%

COc1cc(-c2oc3cc(O)cc(O)c3c(=O)c2O[C@@H]2O[C@H](CO)[C@@H](O)[C@H](O)[C@H]2O)ccc1O [Isorhamnetin-3-glucoside]
% of control remaining: 93.93%

C[C@@H](Oc1cc(-c2cnn(C3CCNCC3)c2)cnc1N)c1c(Cl)ccc(F)c1Cl [Crizotinib]
% of control remaining: 85.14%

CC(C)=CCOc1c2occc2cc2ccc(=O)oc12 [Imperatorin]
% of control remaining: 75.61%

CCc1c2c(nc3ccc(OC(=O)N4CCC(N5CCCCC5)CC4)cc13)-c1cc3c(c(=O)n1C2)COC(=O)[C@]3(O)CC [Irinotecan]
% of control remaining: 105.25%
